Assay results from US9056874B2, “Complement pathway modulators and uses thereof” (NOVARTIS AG, priority 2012, dated 2015).

biological target: T1, factor B (Homo sapiens, UniProt P00751); assay: assay of Biological Example 2.7; type: binding; set-up: made in house; host or cells: drosophila cells; conditions: assay of Biological Example 2.7 (Table 2)
Target sequence in this assay (P00751 26-764): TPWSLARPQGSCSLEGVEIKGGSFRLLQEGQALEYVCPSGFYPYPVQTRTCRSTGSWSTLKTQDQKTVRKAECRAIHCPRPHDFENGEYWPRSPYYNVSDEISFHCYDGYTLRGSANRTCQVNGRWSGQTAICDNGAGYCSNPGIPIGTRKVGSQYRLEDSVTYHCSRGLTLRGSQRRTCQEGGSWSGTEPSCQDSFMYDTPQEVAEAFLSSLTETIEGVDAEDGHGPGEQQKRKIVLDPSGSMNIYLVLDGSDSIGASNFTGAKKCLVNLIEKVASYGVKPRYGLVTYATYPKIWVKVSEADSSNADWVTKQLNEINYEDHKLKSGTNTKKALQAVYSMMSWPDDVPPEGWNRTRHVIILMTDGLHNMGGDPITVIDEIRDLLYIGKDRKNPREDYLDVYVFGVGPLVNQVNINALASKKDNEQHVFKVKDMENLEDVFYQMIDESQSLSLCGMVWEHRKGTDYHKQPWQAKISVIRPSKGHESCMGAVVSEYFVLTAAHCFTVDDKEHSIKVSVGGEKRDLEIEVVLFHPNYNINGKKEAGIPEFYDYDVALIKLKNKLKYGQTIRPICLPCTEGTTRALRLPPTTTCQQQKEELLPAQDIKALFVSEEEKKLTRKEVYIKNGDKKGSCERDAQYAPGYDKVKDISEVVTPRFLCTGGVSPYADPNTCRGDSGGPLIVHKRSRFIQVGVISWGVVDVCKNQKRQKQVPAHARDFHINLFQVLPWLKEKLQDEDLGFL

Row | SMILES | IC50 [nM]
1 | COc1cc(C)c2[nH]ccc2c1C(N)(c1nc2cc(C#N)ccc2[nH]1)C(F)(F)F (racemic) [36-E b) (−), (−)-2-(1-amino-2,2,2-trifluoro-1-(5-methoxy-7-methyl-1H-indol-4-yl)ethyl)-1H-benzo[d]imidazole-5-carbonitrile] | 30
2 | COc1cc(C)c2[nH]ccc2c1C(C)(OC)c1nc2cc(C#N)ccc2[nH]1 (single isomer, unassigned; (-)) [27-B b) (−), (−)-2-(1-methoxy-1-(5-methoxy-7-methyl-1H-indol-4-yl)ethyl)-1H-benzo[d]imidazole-5-carbonitrile] | 4
3 | COc1cc(C)c2[nH]ccc2c1C(C)(N)c1nc2cc(C#N)ccc2[nH]1 (single isomer, unassigned; (-)) [41-B b) (−), (−)-2-(1-amino-1-(5-methoxy-7-methyl-1H-indol-4-yl)ethyl)-1H-benzo[d]imidazole-5-carbonitrile] | 10
4 | COc1cc(C)c2[nH]ccc2c1C(N)c1nc2cc(C#N)ccc2s1 (stereo not drawn) [Example 137-E] | 270
5 | COc1c(F)c(C)c2[nH]ccc2c1C(C)(N)c1nc2cc(C#N)ccc2[nH]1 (stereo not drawn) [Example 137-G] | 29
6 | COc1c(F)c(C)c2[nH]ccc2c1C(C)(OC)c1nc2cc(C#N)ccc2[nH]1 (stereo not drawn) [Example 137-H] | 31
7 | Cc1cc(C)c2[nH]ccc2c1C(O)c1nc2ccc(C#N)cc2s1 (stereo not drawn) [Example 137-O] | 3160
8 | Cc1cc(C)c2[nH]ccc2c1C(O)c1cc2cc(C#N)ccc2[nH]1 (stereo not drawn) [Example 137-P] | 980
9 | Cc1cc(C)c2[nH]ccc2c1C(O)c1cc2cc(C#N)ccc2o1 (stereo not drawn) [Example 137-Q] | 1350
10 | Cc1cc(C)c2[nH]ccc2c1C(O)c1nc2cc(C#N)ccc2s1 (stereo not drawn) [Example 137-R] | 790
11 | COc1cc(C)c2[nH]ccc2c1C(C)(O)c1nc2ccc(C#N)cc2s1 (stereo not drawn) [Example 137-S] | 110
12 | COc1cc(C)c2[nH]ccc2c1C(C)(O)c1cc2ccc(C#N)cc2[nH]1 (stereo not drawn) [Example 137-T] | 50
13 | COc1cc(C)c2[nH]ccc2c1C(C)(O)c1cc2cc(C#N)ccc2[nH]1 (stereo not drawn) [Example 137-U] | 35
14 | COc1cc(C)c2[nH]ccc2c1C(C)(O)c1cc2cc(C#N)ccc2o1 (stereo not drawn) [Example 137-V] | 23
15 | COc1cc(C)c2[nH]ccc2c1C(C)(OC)c1nc2ccc(C#N)cc2s1 (stereo not drawn) [Example 137-W] | 5220
16 | COc1cc(C)c2[nH]ccc2c1C(C)(O)c1cc2ccc(C#N)cc2o1 (stereo not drawn) [Example 137-X] | 190
17 | COc1cc(C)c2[nH]ccc2c1C(C)(OC)c1cc2ccc(C#N)cc2o1 (stereo not drawn) [Example 137-Y] | 820
18 | COc1cc(C)c2[nH]ccc2c1C(C)(OC)c1cc2cc(C#N)ccc2o1 (stereo not drawn) [Example 137-Z] | 520

biological target: T1, factor B; assay: factor B inhibition assay of Biological Example 1; type: biochemical; set-up: CVF-Bb complex prepared from purified cobra venom factor (1 μM), recombinant human complement factor B; made in house; host or cells: drosophila cells (factor B); E. coli (factor D used to form the complex); conditions: IC50 (nM), assay of Biological Example 1 (Table 1)
Target sequence in this assay (P00751 260-764 limits assumed): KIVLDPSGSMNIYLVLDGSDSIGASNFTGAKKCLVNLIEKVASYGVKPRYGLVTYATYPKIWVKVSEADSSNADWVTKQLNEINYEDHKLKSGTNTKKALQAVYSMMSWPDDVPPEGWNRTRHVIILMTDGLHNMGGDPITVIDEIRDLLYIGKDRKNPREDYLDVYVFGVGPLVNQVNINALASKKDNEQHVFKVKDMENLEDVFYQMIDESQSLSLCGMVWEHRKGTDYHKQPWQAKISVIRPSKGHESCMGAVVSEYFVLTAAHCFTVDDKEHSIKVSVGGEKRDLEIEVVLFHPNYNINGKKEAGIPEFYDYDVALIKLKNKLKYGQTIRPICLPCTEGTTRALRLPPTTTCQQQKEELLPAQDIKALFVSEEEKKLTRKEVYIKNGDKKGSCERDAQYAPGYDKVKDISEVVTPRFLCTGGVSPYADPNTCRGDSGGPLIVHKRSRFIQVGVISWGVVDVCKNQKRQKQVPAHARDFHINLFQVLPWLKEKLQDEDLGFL
Target sequence in this assay (Q91132 23-649 partner limits assumed): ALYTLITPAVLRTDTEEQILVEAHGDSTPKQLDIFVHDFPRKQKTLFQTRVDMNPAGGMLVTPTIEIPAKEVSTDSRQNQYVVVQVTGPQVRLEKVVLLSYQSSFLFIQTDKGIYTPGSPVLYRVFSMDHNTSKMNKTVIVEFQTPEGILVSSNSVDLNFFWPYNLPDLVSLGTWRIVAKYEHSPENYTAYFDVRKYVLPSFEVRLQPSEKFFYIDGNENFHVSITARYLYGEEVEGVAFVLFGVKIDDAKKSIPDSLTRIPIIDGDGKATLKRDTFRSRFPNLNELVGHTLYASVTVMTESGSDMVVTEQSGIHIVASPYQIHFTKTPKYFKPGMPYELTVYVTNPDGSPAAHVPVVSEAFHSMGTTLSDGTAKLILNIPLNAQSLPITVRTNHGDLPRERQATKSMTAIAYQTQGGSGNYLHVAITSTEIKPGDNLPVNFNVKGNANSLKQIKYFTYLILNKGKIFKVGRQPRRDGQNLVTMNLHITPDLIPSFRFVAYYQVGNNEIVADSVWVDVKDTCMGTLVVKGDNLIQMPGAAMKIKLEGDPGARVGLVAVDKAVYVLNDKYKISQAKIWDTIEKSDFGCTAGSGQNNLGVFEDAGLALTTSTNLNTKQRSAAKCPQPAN
Target sequence in this assay (Q91132 733-984 partner limits assumed): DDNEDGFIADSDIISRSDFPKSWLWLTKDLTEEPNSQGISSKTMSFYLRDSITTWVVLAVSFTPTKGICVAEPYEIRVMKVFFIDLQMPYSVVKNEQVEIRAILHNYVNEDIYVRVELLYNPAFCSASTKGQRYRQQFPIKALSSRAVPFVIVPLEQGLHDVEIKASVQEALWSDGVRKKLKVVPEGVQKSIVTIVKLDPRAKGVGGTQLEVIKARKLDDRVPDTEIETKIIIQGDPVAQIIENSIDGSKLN
Target sequence in this assay (Q91132 1264-1642 partner limits assumed): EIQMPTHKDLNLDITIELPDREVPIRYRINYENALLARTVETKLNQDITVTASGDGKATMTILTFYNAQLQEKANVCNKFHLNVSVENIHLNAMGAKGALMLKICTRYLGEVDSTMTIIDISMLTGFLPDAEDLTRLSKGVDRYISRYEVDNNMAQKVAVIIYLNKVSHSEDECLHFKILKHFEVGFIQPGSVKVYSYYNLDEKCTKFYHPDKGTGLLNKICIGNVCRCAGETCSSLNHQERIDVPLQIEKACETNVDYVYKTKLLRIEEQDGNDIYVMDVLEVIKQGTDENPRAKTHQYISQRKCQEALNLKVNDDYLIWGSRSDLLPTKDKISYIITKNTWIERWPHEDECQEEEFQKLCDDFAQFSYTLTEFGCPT

Row | SMILES | IC50 [nM]
19 | COc1cc(C)c2[nH]ccc2c1C(N)(c1nc2cc(C#N)ccc2[nH]1)C(F)(F)F (racemic) [36-E b) (−), (−)-2-(1-amino-2,2,2-trifluoro-1-(5-methoxy-7-methyl-1H-indol-4-yl)ethyl)-1H-benzo[d]imidazole-5-carbonitrile] | 40
20 | COc1cc(C)c2[nH]ccc2c1C(C)(OC)c1nc2cc(C#N)ccc2[nH]1 (single isomer, unassigned; (-)) [27-B b) (−), (−)-2-(1-methoxy-1-(5-methoxy-7-methyl-1H-indol-4-yl)ethyl)-1H-benzo[d]imidazole-5-carbonitrile] | 3
21 | COc1cc(C)c2[nH]ccc2c1C(C)(N)c1nc2cc(C#N)ccc2[nH]1 (single isomer, unassigned; (-)) [41-B b) (−), (−)-2-(1-amino-1-(5-methoxy-7-methyl-1H-indol-4-yl)ethyl)-1H-benzo[d]imidazole-5-carbonitrile] | 9
